Consider 5 compounds from PMC7689250, “Synthetic Peptide Libraries Designed From a Minimal Alpha-Helical Domain of AS-48-Bacteriocin Homologs Exhibit Potent Antibacterial Activity” (Frontiers in Microbiology, 2020).

In one data set the test system is P. aeruginosa (PAO1). It counts as cell-based, Pseudomonas aeruginosa. Particulars: for MBC: PAO1. A digest of the protocol:
(§1)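 MIC in Mueller-Hinton broth with 1 × 10^6 CFU/mL bacteria, overnight cultures grown first in LB (E. coli, P. aeruginosa, S. aureus) or Todd-Hewitt (S. pyogenes); growth read as OD 600. Library members screened at half the parent peptide MIC; MBC as lowest concentration giving no colonies after plating MIC wells, 37°C overnight.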

Data set [1] has as its system GFP-expressing E. coli strain BL21. In words: Live imaging of GFP leakage. Type of data set: cell-based, Escherichia coli. Conditions: 16 μM peptide, 8 h, 37°C, images every 10 min. As for the experimental part: To observe bacterial cell death in the presence of peptide in real time, fluorescence microscopy was employed using GFP-expressing E. coli strain BL21. MIC assays were conducted against BL21-GFP to determine the peptide concentration used for microscopy experiments. The peptide was suspended in PBS and added to diluted bacterial cells. GFP-expressing E. coli in the presence of peptide were imaged on the Eclipse Ti-E inverted microscope (Nikon) using GFP and DIC channels for 8 h at 37°C, with images taken every 10 min ([Fields et al., 2020]). Syn-xiamencin-2, a peptide with no detectable antimicrobial activity below 128 μM was also evaluated as a negative peptide candidate control.

The test system of a further data set is S. pyogenes (M1). It counts as cell-based, Streptococcus pyogenes. Conditions: for MBC: M1; for MIC: M1, 16 h. A digest of the protocol:
as §1

In another data set the test system is S. aureus (USA300). Type of data set: cell-based, Staphylococcus aureus. Conditions: for MBC: USA300; for MIC: USA300, 16 h. A digest of the protocol:
as §1

For a further data set, the system named is E. coli (BL21). It counts as cell-based, Escherichia coli. A digest of the protocol: as §1
For a further data set, the system named is sheep erythrocytes. It counts as cell-based. Conditions: red cells of sheep, 1 h. A digest of the protocol:
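Washed defibrinated sheep blood, diluted 1:25 in PBS, incubated 1 h at 37 °C with peptide at the MIC-assay concentrations (sample:blood 1:10). Haemoglobin release read as supernatant absorbance at 450 nm; percent haemolysis normalised to PBS and 10% Triton controls.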

Setting [2] is: E. coli BL21, running text b43, unit printed nm.

Where two headings read alike, the source gives them in different places. Residues, ends and D or L forms follow the SMILES beside them.

With `CC[C@H](C)[C@H](NC(=O)[C@H](CCCCN)NC(=O)[C@H](CCCCN)NC(=O)CNC(=O)[C@H](CCC(=O)O)NC(=O)[C@H](CCC(N)=O)NC(=O)[C@@H](NC(=O)[C@@H](NC(=O)[C@H](CCCCN)NC(=O)[C@H](CCCCN)NC(=O)[C@H](CC(C)C)NC(=O)[C@H](CCCNC(=N)N)NC(=O)[C@H](CCC(N)=O)NC(=O)[C@H](Cc1ccccc1)NC(=O)[C@@H](NC(=O)[C@H](CCCCN)NC(=O)[C@H](CCC(=O)O)NC(=O)[C@@H](NC(=O)[C@H](Cc1c[nH]c2ccccc12)NC(=O)[C@H](C)N)[C@@H](C)O)[C@@H](C)CC)[C@@H](C)O)[C@@H](C)CC)C(=O)N[C@@H](C)C(=O)N[C@@H](CCCCN)C(=O)N[C@@H](CCCNC(=N)N)C(=O)N[C@@H](C)C(=O)N[C@@H](Cc1c[nH]c2ccccc12)C(=O)O` [Syn-larvacin-39] (H-AWTEKIFQRLKKTIQEGKKIAKRAW-OH; N-terminus and C-terminus assumed), the MBC was 64 µM in the data set with P. aeruginosa (PAO1), 4 µM in the data set on S. pyogenes (M1), 4 µM with S. aureus (USA300) and “below 15.6 nM” in the data set on E. coli (BL21) (setting [2]). In addition, the MIC in the data set with P. aeruginosa (PAO1) (PAO1, 16 h) was 16 µM; in the data set with S. pyogenes (M1), 2 µM; with S. aureus (USA300) it was 1 µM; in the data set with E. coli (BL21) (BL21) it was 0.0156 µM; in the data set with E. coli (BL21) (BL21, 16 h), <0.0156 µM; in the data set on E. coli (BL21) (setting [2]), “below 15.6 nM”. Further, in data set [1], the “GFP leakage / change in fluorescence” value is “significant decrease in fluorescence”. In addition, the “Percent Hemolysis” value in the data set with sheep erythrocytes is reported as 14.4%.
Consider `CC[C@H](C)[C@H](NC(=O)[C@H](CCCNC(=N)N)NC(=O)[C@H](CCC(N)=O)NC(=O)[C@H](Cc1c[nH]c2ccccc12)NC(=O)CNC(=O)[C@H](C)N)C(=O)N[C@@H](CCCCN)C(=O)N[C@@H](C)C(=O)N[C@@H](Cc1ccc(O)cc1)C(=O)N[C@@H](CC(C)C)C(=O)N[C@@H](CCCNC(=N)N)C(=O)N[C@@H](CCCNC(=N)N)C(=O)N[C@@H](CCC(=O)O)C(=O)N[C@H](C(=O)N[C@@H](CCCNC(=N)N)C(=O)N[C@@H](CCCCN)C(=O)N[C@@H](CCCNC(=N)N)C(=O)NCC(=O)N[C@@H](CCCNC(=N)N)C(=O)N[C@@H](CCCCN)C(=O)N[C@@H](C)C(=O)N[C@H](C(=O)N[C@H](C(=O)N[C@@H](C)C(=O)N[C@@H](Cc1c[nH]c2ccccc12)C(=O)O)[C@@H](C)CC)C(C)C)[C@@H](C)CC` [Syn-sordellicin-43] (H-AGWQRIKAYLRREIRKRGRKAVIAW-OH; N-terminus and C-terminus assumed), for which the MIC in the data set with P. aeruginosa (PAO1) (P. aeruginosa PAO1, broth microdilution, Mueller-Hinton broth, 1 × 10^6 CFU/mL, 16 h, OD600, triplicate) came out at 2 µM; with S. pyogenes (M1), 2 µM; in the data set with S. aureus (USA300), 32 µM; with E. coli (BL21) (BL21, 16 h), 1 µM. For the same compound, the MBC in the data set on P. aeruginosa (PAO1) is 4 µM; in the data set with S. pyogenes (M1) it was 4 µM; in the data set with S. aureus (USA300), 32 µM; with E. coli (BL21) (BL21) it was 1 µM. In data set [1], the “GFP leakage / change in fluorescence” value is reported as “significant decrease in fluorescence”. Moreover, the “Percent Hemolysis” value in the data set on sheep erythrocytes came out at 11.2%.
`CC[C@H](C)[C@H](NC(=O)[C@H](Cc1ccccc1)NC(=O)[C@H](C)NC(=O)[C@H](CCCCN)NC(=O)[C@H](CCCCN)NC(=O)CNC(=O)[C@H](CCCNC(=N)N)NC(=O)[C@H](CCCCN)NC(=O)[C@H](CCCNC(=N)N)NC(=O)[C@H](CC(C)C)NC(=O)[C@H](Cc1ccc(O)cc1)NC(=O)[C@H](CCC(=O)O)NC(=O)[C@H](CCCCN)NC(=O)[C@H](CC(C)C)NC(=O)[C@H](CCC(=O)O)NC(=O)[C@H](CC(C)C)NC(=O)[C@@H](NC(=O)[C@H](CC(C)C)NC(=O)[C@H](CCCCN)NC(=O)[C@H](CCC(N)=O)NC(=O)[C@H](CCCNC(=N)N)NC(=O)CNC(=O)[C@H](C)N)[C@@H](C)O)C(=O)N[C@@H](C)C(=O)N[C@@H](Cc1c[nH]c2ccccc12)C(=O)O` [Syn-xiamencin-83] (H-AGRQKLTLELKEYLRKRGKKAFIAW-OH; N-terminus and C-terminus assumed): the minimal bactericidal concentration (MBC) with P. aeruginosa (PAO1) was >128 µM; in the data set with S. pyogenes (M1) it was 4 µM; in the data set on S. aureus (USA300) it was >128 µM; in the data set on E. coli (BL21) (BL21), 32 µM. Besides, the minimum inhibitory concentration (MIC) with P. aeruginosa (PAO1) (PAO1, 16 h) is 128 µM; in the data set with S. pyogenes (M1), 4 µM; in the data set on S. aureus (USA300) it was >128 µM; with E. coli (BL21) (BL21, 16 h) it was 16 µM. The “Percent Hemolysis” value with sheep erythrocytes stood at 10.7%.
Turning to `CC[C@H](C)[C@H](NC(=O)[C@H](CCCCN)NC(=O)[C@H](C)NC(=O)[C@H](CCCNC(=N)N)NC(=O)[C@H](CCCCN)NC(=O)CNC(=O)[C@H](CCCCN)NC(=O)[C@H](CCC(=O)O)NC(=O)[C@H](CCC(N)=O)NC(=O)[C@@H](NC(=O)[C@H](CCCCN)NC(=O)[C@H](CCCCN)NC(=O)[C@H](CCCCN)NC(=O)[C@H](CC(C)C)NC(=O)[C@H](CCCNC(=N)N)NC(=O)[C@H](CCC(N)=O)NC(=O)[C@H](Cc1ccccc1)NC(=O)[C@@H](NC(=O)[C@@H](NC(=O)[C@H](CCC(=O)O)NC(=O)[C@H](CCCCN)NC(=O)CNC(=O)[C@H](C)N)[C@@H](C)O)[C@@H](C)CC)[C@@H](C)CC)C(=O)N[C@@H](C)C(=O)N[C@@H](Cc1c[nH]c2ccccc12)C(=O)O` [Syn-larvacin-91] (H-AGKETIFQRLKKKIQEKGKRAKIAW-OH; N-terminus and C-terminus assumed), the minimum bactericidal concentration (MBC) with P. aeruginosa (PAO1) was 64 µM; in the data set on S. pyogenes (M1), 0.5 µM; in the data set on S. aureus (USA300) it was 2 µM; with E. coli (BL21) (BL21), 2 µM. Further, the MIC worked out at 32 µM with P. aeruginosa (PAO1) (PAO1, 16 h); 0.5 µM with S. pyogenes (M1); 2 µM in the data set with S. aureus (USA300); 1 µM with E. coli (BL21) (BL21, 16 h). Moreover, in the data set with sheep erythrocytes, the “Percent Hemolysis” value was found to be 23.4%.
As to `CC[C@H](C)[C@H](NC(=O)[C@H](CCCCN)NC(=O)[C@H](CCCCN)NC(=O)[C@H](CCCCN)NC(=O)[C@H](CC(C)C)NC(=O)[C@H](Cc1ccccc1)NC(=O)[C@H](CCC(N)=O)NC(=O)[C@H](CCCNC(=N)N)NC(=O)[C@@H](NC(=O)[C@@H](NC(=O)[C@H](CCC(=O)O)NC(=O)[C@H](CCCCN)NC(=O)CNC(=O)[C@H](C)N)[C@@H](C)O)[C@@H](C)CC)C(=O)N[C@@H](CCC(N)=O)C(=O)N[C@@H](CCC(=O)O)C(=O)N[C@@H](Cc1c[nH]c2ccccc12)C(=O)N[C@@H](CCCCN)C(=O)N[C@@H](CCCCN)C(=O)N[C@@H](CCCNC(=N)N)C(=O)N[C@@H](C)C(=O)N[C@H](C(=O)N[C@H](C(=O)N[C@@H](C)C(=O)N[C@@H](Cc1c[nH]c2ccccc12)C(=O)O)[C@@H](C)CC)[C@@H](C)O` [Syn-larvacin-44] (H-AGKETIRQFLKKKIQEWKKRATIAW-OH; N-terminus and C-terminus assumed), the minimal bactericidal concentration (MBC) in the data set on P. aeruginosa (PAO1) came to 32 µM; in the data set with S. pyogenes (M1), 0.5 µM; with S. aureus (USA300), 32 µM; with E. coli (BL21) (BL21), 1 µM. In addition, the MIC turned out to be 16 µM with P. aeruginosa (PAO1) (PAO1, 16 h); 0.5 µM in the data set with S. pyogenes (M1); 32 µM in the data set on S. aureus (USA300); 0.5 µM with E. coli (BL21) (BL21, 16 h). Also, in the data set on sheep erythrocytes, the “Percent Hemolysis” value came out at 20.9%.
